Experiments:
[1] = tested on: RMG-I (Ovarian Carcinoma); assay: Bliss excess, mean over the matrix (fraction); higher = more synergy
Procedure, shortened: (§1)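 After 24 hours at 37°C and 5% CO2 in 1536-well plates, cells in DMEM/F12 or RPMI plus 10% FBS received two-drug dose matrices for 72 hours. Viability came from CellTiter-Glo 2.0 luminescence and was scaled as inhibition, anchored at 0 by vehicle wells and at 1 by blank wells. Combination Emax is taken as the second-highest inhibition in the matrix, and Bliss excess as the observed combination effect less EA + EB − EA·EB, with EA and EB the single-agent effects.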

[2] = tested on: HTC-C3 (Thyroid Gland Carcinoma); assay: as above
Procedure, shortened: as §1

[3] = tested on: SJRH30 (Rhabdomyosarcoma); assay: as above
Procedure, shortened: as §1

[4] = tested on: RL95-2 (Endometrial Carcinoma); assay: as above
Procedure, shortened: as §1

[5] = tested on: AN3-CA (Endometrial Carcinoma); assay: as above
Procedure, shortened: as §1

[6] = tested on: NCI-H1563 (Lung Adenocarcinoma); assay: as above
Procedure, shortened: as §1

[7] = tested on: Caov-3 (Ovarian Carcinoma); assay: as above
Procedure, shortened: as §1

KYM-1 (Rhabdomyosarcoma) = assay: as above
Procedure, shortened: as §1

[8] = tested on: Becker (Low Grade Glioma); assay: as above
Procedure, shortened: as §1

[9] = tested on: BALL-1 (B-Lymphoblastic Leukemia); assay: as above
Procedure, shortened: as §1

RT4 (Bladder Carcinoma) = assay: as above
Procedure, shortened: as §1

[10] = tested on: NCI-H810 (Non-Small Cell Lung Carcinoma); assay: as above
Procedure, shortened: as §1

[11] = tested on: OVTOKO (Ovarian Carcinoma); assay: as above
Procedure, shortened: as §1

[12] = tested on: LOUCY (T-Lymphoblastic Leukemia); assay: as above
Procedure, shortened: as §1

[13] = tested on: SK-MM-2 (Plasma Cell Myeloma); assay: as above
Procedure, shortened: as §1

[14] = tested on: PC-14 (Lung Adenocarcinoma); assay: as above
Procedure, shortened: as §1

[15] = tested on: NCI-H196 (Small Cell Lung Carcinoma); assay: as above
Procedure, shortened: as §1

[16] = tested on: COLO-684 (Endometrial Carcinoma); assay: as above
Procedure, shortened: as §1

[17] = tested on: NCI-H1155 (Non-Small Cell Lung Carcinoma); assay: combination Emax (second highest fraction inhibited in the dose matrix, 72 h); higher = more inhibition; extreme values may be limits of the assay
Procedure, shortened: as §1

[18] = tested on: OVTOKO (Ovarian Carcinoma); assay: as above
Procedure, shortened: as §1
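For Bliss excess, mean over the matrix in this document: after 72 h of two-drug dosing.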

Structure (SMILES)	Bliss excess [1]	Bliss excess [2]	Bliss excess [3]	Bliss excess [4]	Bliss excess [5]	Bliss excess [6]	Bliss excess [7]	Bliss excess (KYM-1 (Rhabdomyosarcoma))	Bliss excess [8]	Bliss excess [9]	Bliss excess (RT4 (Bladder Carcinoma))	Bliss excess [10]	Bliss excess [11]	Bliss excess [12]	Bliss excess [13]	Bliss excess [14]	Bliss excess [15]	Bliss excess [16]	combination Emax [17]	combination Emax [18]
Cc1c2c(nn1C)CSCc1cc(n(C)n1)CSc1cc(c3ccccc3c1)OCCCc1c(C(=O)O)n(C)c3c-2c(Cl)ccc13 [AZD5991] + Cc1cc2ncnn2cc1Nc1ncc2c(n1)n(C1CCOCC1)c(=O)n2C [AZD7648] (first compound max 1 µM, 7x7, partner max 10 µM)	-0.0389	-0.0558	-0.0214	-0.0033	-0.0411	-0.0185	-0.0436	0.0136	0.0005	-0.0064	-0.0301	-0.0484	-0.0238	-0.0479	0.0087	-0.0088	-0.0431	0.0076	0.257	0.41
Cc1cc2ncnn2cc1Nc1ncc2c(n1)n(C1CCOCC1)c(=O)n2C [AZD7648] + CN(C)CCCOc1ccc(-c2ccc3ncc4c(c3c2)n(C2CCOCC2)c(=O)n4C)cn1 [AZD0156] (first compound max 10 µM, 7x7, partner max 1 µM)	-0.0322	0.0024	0.0105	0.0161	-0.0224	-0.0164	-0.0085	0.0278	0.0066	-0.0108	0.0212	0.0125	-0.0537	0.0007	-0.0552	0.0186	-0.0173	-0.0324	0.319	0.229
CC1(C)CCC(CN2CCN(c3ccc(C(=O)NS(=O)(=O)c4ccc(NCC5CCOCC5)c([N+](=O)[O-])c4)c(Oc4cnc5[nH]ccc5c4)c3)CC2)=C(c2ccc(Cl)cc2)C1 [Venetoclax] + C=CCn1c(=O)c2cnc(Nc3ccc(N4CCN(C)CC4)cc3)nc2n1-c1cccc(C(C)(C)O)n1 [AZD1775] (first compound max 1 µM, partner max 1 µM)	-0.0409	-0.065	-0.045	0.0277	-0.0253	0.0451	0.0265	0.0082	0.0593	0.0171	0.0364	-0.0873	-0.0903	0.0193	0.102	-0.0027	-0.0007	-0.0644	0.223	0.529
Cc1cc2ncnn2cc1Nc1ncc2c(n1)n(C1CCOCC1)c(=O)n2C [AZD7648] + CCN(CCO)CCCOc1ccc2c(Nc3cc(CC(=O)Nc4cccc(F)c4)[nH]n3)ncnc2c1 [AZD2811] (first compound max 10 µM, 7x7, partner max 1 µM)	0.0097	0.0226	0.0417	0.0646	0.0113	0.0036	-0.0523	0.0571	0.0154	0.13	0.0534	-0.0162	-0.0011	-0.043	-0.0115	0.0257	-0.0181	0.0234	0.475	0.232
Cc1c2c(nn1C)CSCc1cc(n(C)n1)CSc1cc(c3ccccc3c1)OCCCc1c(C(=O)O)n(C)c3c-2c(Cl)ccc13 [AZD5991] + C=CCn1c(=O)c2cnc(Nc3ccc(N4CCN(C)CC4)cc3)nc2n1-c1cccc(C(C)(C)O)n1 [AZD1775] (first compound max 1 µM, partner max 1 µM)	-0.0369	0.0091	-0.0362	0.0116	-0.0512	0.0004	-0.0274	0.0583	-0.0319	-0.0181	0.0351	0.0025	0.0474	-0.003	-0.112	-0.001	-0.0266	-0.0587	0.786	0.618
CN(CCO)CC[C@H](CSc1ccccc1)Nc1ccc(S(=O)(=O)NC(=O)c2ccc(N3CCC([C@@H](O)c4ccccc4-c4ccc(Cl)cc4)CC3)cc2)cc1S(=O)(=O)C(F)(F)F [AZD4320] + C[C@@H](Nc1cc(F)cc(F)c1)c1cc(C(=O)N(C)C)cc2c(=O)cc(N3CCOCC3)oc12 [AZD8186] (first compound max 1 µM, 7x7, partner max 3 µM)	-0.0066	0.0311	0.0718	-0.0036	-0.0339	0.0295	-0.019	0.0193	0.0186	0.0506	0.032	-0.0461	0.0019	0.0111	0.0197	0.0228	0.0427	0.0193	0.97	–
Cc1c2c(nn1C)CSCc1cc(n(C)n1)CSc1cc(c3ccccc3c1)OCCCc1c(C(=O)O)n(C)c3c-2c(Cl)ccc13 [AZD5991] + Cn1cnc2c(F)c(Nc3ccc(Br)cc3Cl)c(C(=O)NOCCO)cc21 [Selumetinib] (first compound max 1 µM, 7x7, partner max 3 µM)	-0.0027	-0.0271	0.0386	0.0336	0.0158	0.0158	0.0536	0.0084	-0.0092	-0.0064	0.0266	-0.0133	-0.039	0.0129	-0.0194	0.0286	-0.0374	-0.0177	0.363	–

Source: the supplement of paper PMC11061612
